Data: DBAASP
Converted amounts (≈) assume the structure as drawn. One block for each compound: values may come before it.

Tests used:
Experiment in all cases: ≥ marks a high value that may be exact or a test limit, other limits are often not marked, values filed in µg/mL are converted to µM
[1] = system: Pseudomonas aeruginosa ATCC 27853
[2] = system: Escherichia coli ATCC 25922
[3] = system: Pseudomonas aeruginosa ATCC 15692
Staphylococcus capitis 1 = system: Staphylococcus capitis 1
Acinetobacter junii RT-4 = system: Acinetobacter junii RT-4
[4] = system: Candida albicans ATCC 10231
[5] = system: Yersinia pseudotuberculosis YPIII
[6] = system: Staphylococcus epidermidis ATCC 12228
[7] = system: Staphylococcus aureus ATCC 25923
[8] = system: Acinetobacter baumannii ATCC 19606
Escherichia coli D21 = system: Escherichia coli D21
[9] = system: Enterococcus faecalis ATCC 29212
[10] = system: Staphylococcus aureus Cowan 1
[11] = system: Schizosaccharomyces pombe
Bacillus megaterium Bm11 = system: Bacillus megaterium Bm11
[12] = system: Streptococcus pyogenes ATCC 21547
Saccharomyces cerevisiae = system: Saccharomyces cerevisiae
[13] = system: Pseudomonas syringae pv. tabaci 1918NCPPB
[14] = system: Staphylococcus aureus ATCC 49476
Staphylococcus aureus MR = system: Staphylococcus aureus MR
Candida albicans = system: Candida albicans
[15] = system: Pseudomonas aeruginosa ATCC 9027
[16] = system: Bacillus subtilis ATCC 9372
[17] = system: Staphylococcus aureus ATCC 6538
[18] = system: Escherichia coli ATCC 8739
[19] = system: Proteus vulgaris NCTC 4635
[20] = system: Bacillus subtilis KCTC 1918
[21] = system: Trichosporon beigelii KCTC 7707
[22] = system: Pseudomonas aeruginosa KCTC 1637
[23] = system: Staphylococcus epidermidis KCTC 3096
[24] = system: Candida albicans TIMM 1768
[25] = system: Salmonella typhimurium KCTC 1926
[26] = system: Saccharomyces cerevisiae KCTC 7296
[27] = system: Salmonella enterica subsp. enterica serovar Typhi DMST 22842
Escherichia coli O157:H7 = system: Escherichia coli O157:H7
Vibrio cholerae non-O139 = system: Vibrio cholerae non-O139
Vibrio cholerae non-O1 = system: Vibrio cholerae non-O1

Compound: CC[C@H](C)[C@H](NC(=O)[C@H](CCCN=C(N)N)NC(=O)CNC(=O)[C@H](CC(C)C)NC(=O)[C@H](Cc1ccccc1)NC(=O)[C@H](CCCN=C(N)N)NC(=O)[C@H](CO)NC(=O)[C@H](Cc1ccccc1)NC(=O)[C@H](Cc1c[nH]c2ccccc12)NC(=O)[C@H](CCCN=C(N)N)NC(=O)[C@@H](NC(=O)[C@@H](N)Cc1ccccc1)C(C)C)C(=O)N[C@@H](CC(C)C)C(N)=O [FVRWFSRFLGRIL]
MIC [1]: 24 µM (≈ 40.7 µg/mL) | MIC [2]: 48 µM (≈ 81.4 µg/mL) | MIC [3]: 24 µM (≈ 40.7 µg/mL) | MIC (Staphylococcus capitis 1): 6 µM (≈ 10.2 µg/mL) | MIC (Acinetobacter junii RT-4): 12 µM (≈ 20.4 µg/mL) | MIC [4]: 24 µM (≈ 40.7 µg/mL) | MIC [5]: 6 µM (≈ 10.2 µg/mL) | MIC [6]: 6 µM (≈ 10.2 µg/mL) | MIC [7]: 6 µM (≈ 10.2 µg/mL) | MIC [8]: 6 µM (≈ 10.2 µg/mL) | MIC (Escherichia coli D21): 24 µM (≈ 40.7 µg/mL) | MIC [9]: 24 µM (≈ 40.7 µg/mL) | MIC [10]: 6 µM (≈ 10.2 µg/mL) | MIC [11]: 12 µM (≈ 20.4 µg/mL) | MIC (Bacillus megaterium Bm11): 3 µM (≈ 5.09 µg/mL) | MIC [12]: 3 µM (≈ 5.09 µg/mL) | MIC (Saccharomyces cerevisiae): 24 µM (≈ 40.7 µg/mL) | MIC [13]: 6 µM (≈ 10.2 µg/mL)

Compound: CC[C@H](C)[C@H](NC(=O)[C@@H](NC(=O)[C@H](CC(=O)O)NC(=O)[C@H](Cc1ccccc1)NC(=O)[C@H](CC(C)C)NC(=O)CN)C(C)C)C(=O)N[C@@H](CCCCN)C(=O)O [GLFDVIK]
MIC [15]: 1290 µM (≈ 1020 µg/mL) | MIC [16]: ≥ 1290 µM | MIC [17]: > 1290 µM | MIC [18]: ≥ 1290 µM | MIC [19]: ≥ 1290 µM

Compound: CC(C)C[C@H](NC(=O)[C@H](CCCCN)NC(=O)[C@H](CC(C)C)NC(=O)[C@H](CCCCN)NC(=O)[C@H](CC(C)C)NC(=O)[C@@H]1CCCN1C(=O)[C@H](CCCCN)NC(=O)[C@H](CCCCN)NC(=O)[C@H](CC(C)C)NC(=O)[C@H](CC(C)C)NC(=O)[C@H](CCCCN)NC(=O)[C@H](CCCCN)NC(=O)[C@H](Cc1c[nH]c2ccccc12)NC(=O)[C@@H](N)CCCCN)C(N)=O [KWKKLLKKPLKLKL]
MIC [20]: 3.1 µM (≈ 5.47 µg/mL) | MIC [21]: 3.1 µM (≈ 5.47 µg/mL) | MIC [22]: 3.1 µM (≈ 5.47 µg/mL) | MIC [23]: 3.1 µM (≈ 5.47 µg/mL) | MIC [24]: 12.5 µM (≈ 22 µg/mL) | MIC [25]: 0.2 µM (≈ 0.353 µg/mL) | MIC [26]: 12.5 µM (≈ 22 µg/mL)

Compound: CC(C)[C@H](NC(=O)CNC(=O)[C@@H](N)CC(N)=O)C(=O)N[C@@H](CCC(N)=O)C(=O)N1CCC[C@H]1C(=O)N[C@@H](CCCCN)C(=O)N[C@@H](Cc1ccc(O)cc1)C(=O)N[C@@H](CCCCN)C(=O)N[C@@H](Cc1c[nH]c2ccccc12)C(=O)N[C@@H](Cc1c[nH]c2ccccc12)C(=O)N[C@@H](CCCCN)C(=O)N[C@@H](Cc1c[nH]c2ccccc12)C(=O)N[C@@H](Cc1c[nH]c2ccccc12)C(=O)N[C@@H](CCCCN)C(=O)N[C@@H](CCCCN)C(=O)N[C@@H](Cc1c[nH]c2ccccc12)C(=O)N[C@@H](Cc1c[nH]c2ccccc12)C(N)=O [NGVQPKYKWWKWWKKWW]
MIC [1]: 37.4 µM (≈ 91 µg/mL) | MIC [2]: 4.52 µM (≈ 11 µg/mL) | MIC [27]: 9.45 µM (≈ 23 µg/mL) | MIC [6]: 9.45 µM (≈ 23 µg/mL) | MIC (Escherichia coli O157:H7): 4.52 µM (≈ 11 µg/mL) | MIC [7]: 18.9 µM (≈ 46 µg/mL) | MIC (Vibrio cholerae non-O139): 4.52 µM (≈ 11 µg/mL) | MIC (Vibrio cholerae non-O1): 4.52 µM (≈ 11 µg/mL)

Compound: CC(C)C[C@H](NC(=O)[C@H](CCCCN)NC(=O)[C@H](CCCCN)NC(=O)[C@H](CC(C)C)NC(=O)[C@H](CC(C)C)NC(=O)[C@H](CCCCN)NC(=O)[C@H](CCCCN)NC(=O)[C@H](CC(C)C)NC(=O)[C@H](CC(C)C)NC(=O)[C@@H]1CCCN1C(=O)[C@H](CCCCN)NC(=O)[C@H](CC(C)C)NC(=O)[C@H](CCCCN)NC(=O)[C@H](Cc1c[nH]c2ccccc12)NC(=O)[C@@H](N)CCCCN)C(N)=O [KWKLKPLLKKLLKKL]
MIC [20]: 3.1 µM (≈ 5.82 µg/mL) | MIC [21]: 1.6 µM (≈ 3 µg/mL) | MIC [22]: 3.1 µM (≈ 5.82 µg/mL) | MIC [23]: 1.6 µM (≈ 3 µg/mL) | MIC [24]: 12.5 µM (≈ 23.5 µg/mL) | MIC [25]: 0.2 µM (≈ 0.375 µg/mL) | MIC [26]: 12.5 µM (≈ 23.5 µg/mL)

The next lines start with the values.

MIC [1]: 48 µM (≈ 80.1 µg/mL) | MIC [2]: 12 µM (≈ 20 µg/mL) | MIC [3]: 24 µM (≈ 40 µg/mL) | MIC (Staphylococcus capitis 1): 6 µM (≈ 10 µg/mL) | MIC (Acinetobacter junii RT-4): 6 µM (≈ 10 µg/mL) | MIC [4]: 12 µM (≈ 20 µg/mL) | MIC [5]: 6 µM (≈ 10 µg/mL) | MIC [6]: 6 µM (≈ 10 µg/mL) | MIC [7]: 6 µM (≈ 10 µg/mL) | MIC [8]: 6 µM (≈ 10 µg/mL) | MIC (Escherichia coli D21): ≥ 48 µM | MIC [9]: 12 µM (≈ 20 µg/mL) | MIC [10]: 6 µM (≈ 10 µg/mL) | MIC [11]: 6 µM (≈ 10 µg/mL) | MIC (Bacillus megaterium Bm11): 6 µM (≈ 10 µg/mL) | MIC [12]: 6 µM (≈ 10 µg/mL) | MIC (Saccharomyces cerevisiae): 12 µM (≈ 20 µg/mL) | MIC [13]: 12 µM (≈ 20 µg/mL)
Compound: CC[C@H](C)[C@H](NC(=O)[C@H](CCCN=C(N)N)NC(=O)CNC(=O)[C@H](CC(C)C)NC(=O)[C@H](Cc1ccccc1)NC(=O)[C@H](CCCN=C(N)N)NC(=O)[C@H](CO)NC(=O)[C@H](Cc1ccccc1)NC(=O)[C@H](Cc1c[nH]c2ccccc12)NC(=O)[C@H](CCC(N)=O)NC(=O)[C@@H](NC(=O)[C@@H](N)Cc1ccccc1)C(C)C)C(=O)N[C@@H](CC(C)C)C(N)=O [FVQWFSRFLGRIL]

MIC [14]: 5.99 µM (≈ 16 µg/mL) | MIC [1]: 192 µM (≈ 512 µg/mL) | MIC (Staphylococcus aureus MR): 12 µM (≈ 32 µg/mL) | MIC (Candida albicans): 48 µM (≈ 128 µg/mL)
Compound: CC[C@H](C)[C@H](NC(=O)[C@H](C)NC(=O)[C@H](CCCCN)NC(=O)CNC(=O)[C@H](C)NC(=O)[C@H](CO)NC(=O)[C@H](Cc1ccccc1)NC(=O)[C@H](CC(C)C)NC(=O)CNC(=O)CNC(=O)[C@@H](NC(=O)[C@@H](NC(=O)[C@H](Cc1cnc[nH]1)NC(=O)[C@H](Cc1cnc[nH]1)NC(=O)[C@@H](NC(=O)[C@@H](N)Cc1ccccc1)[C@@H](C)CC)[C@@H](C)CC)[C@@H](C)CC)C(=O)N[C@@H](Cc1cnc[nH]1)C(=O)N[C@@H](CCCN=C(N)N)C(=O)N[C@@H](CC(C)C)C(=O)N[C@H](C(=O)N[C@@H](CCCN=C(N)N)C(=O)N[C@@H](CCCN=C(N)N)C(=O)N[C@@H](CCCN=C(N)N)C(=O)O)[C@@H](C)CC [FIHHIIGGLFSAGKAIHRLIRRR]

MIC [14]: ≥ 100 µM | MIC [1]: > 200 µM | MIC (Staphylococcus aureus MR): ≥ 100 µM | MIC (Candida albicans): 50.1 µM (≈ 128 µg/mL)
Compound: CC[C@H](C)[C@H](NC(=O)[C@H](CC(C)C)NC(=O)[C@H](CO)NC(=O)[C@H](Cc1cnc[nH]1)NC(=O)[C@@H](NC(=O)[C@H](Cc1cnc[nH]1)NC(=O)[C@H](CCCCN)NC(=O)CNC(=O)[C@@H](NC(=O)[C@H](CO)NC(=O)[C@H](Cc1ccccc1)NC(=O)[C@H](CC(C)C)NC(=O)CNC(=O)CNC(=O)[C@@H](NC(=O)[C@@H](NC(=O)[C@H](Cc1cnc[nH]1)NC(=O)[C@H](Cc1cnc[nH]1)NC(=O)[C@@H](NC(=O)[C@@H](N)Cc1ccccc1)[C@@H](C)CC)[C@@H](C)CC)[C@@H](C)CC)C(C)C)[C@@H](C)CC)C(=O)N[C@@H](Cc1cnc[nH]1)C(=O)NCC(=O)N[C@@H](Cc1cnc[nH]1)C(=O)O [FIHHIIGGLFSVGKHIHSLIHGH]

MIC [15]: 737 µM (≈ 1020 µg/mL) | MIC [16]: ≥ 737 µM | MIC [17]: 737 µM (≈ 1020 µg/mL) | MIC [18]: ≥ 369 µM | MIC [19]: ≥ 737 µM
Compound: CC[C@H](C)[C@H](NC(=O)[C@@H](NC(=O)[C@H](CO)NC(=O)[C@H](C)NC(=O)[C@H](CCCCN)NC(=O)[C@@H](NC(=O)[C@@H](NC(=O)[C@H](CC(=O)O)NC(=O)[C@H](Cc1ccccc1)NC(=O)[C@H](CC(C)C)NC(=O)CN)C(C)C)[C@@H](C)CC)C(C)C)C(=O)NCC(=O)NCC(=O)N[C@@H](CC(C)C)C(=O)O [GLFDVIKASVIGGL]
